According to patent publication US9745320B2, “Five-and-six-membered heterocyclic compound, and preparation method, pharmaceutical composition and use thereof” (SHANGHAI CHEMEXPLORER CO., LTD., priority 2013, dated 2017):
Where two headings read alike, the source gives them in different places.

Key:
Format in all cases: biochemical
JAK2 = JAK2 (Homo sapiens, UniProt O60674); assay: JAK 2 enzymatic inhibitory activity IC50 assay (Caliper conversion rate); settings: Km ATP, 28° C., 1 hour
Method: (§1) Biological effect: intracytoplasmic JAK 1,2,3 enzymatic inhibitory activity IC50 assay
(§2) JAK1 buffer solution: 25 mM HEPES, pH 7.5, 0.01% Brij-35, 0.01 M Triton. JAK2,3 buffer solution: 50 mM HEPES, pH 7.5, 0.0015% Brij-35.
(§3) 2. Compound was formulated in 100% DMSO in a concentration gradient, deposited to a 384-well plate with a final concentration of 2% of DMSO.
(§4) 3. JAK2,3 enzymes were diluted to having an optimum concentration with the following buffer: 50 mM HEPES, pH 7.5, 0.0015% Brij-35, 2 mM DTT. JAK1 enzyme was diluted to having an optimum concentration with the following buffer: 25 mM HEPES, pH 7.5, 0.01% Brij-35, 2 mM DTT, 0.01M Triton. Then they were transferred to a 384-well plate and incubated with the compound for a certain time.
(§5) 4. JAK2,3 substrate was diluted to having an optimum concentration with the following buffer: 50 mM HEPES, pH 7.5, 0.0015% Brij-35, 10 mM MgCl2, Km adenosine triphosphate. JAK1 substrate was diluted to having an optimum concentration with the following buffer: 25 mM HEPES, pH 7.5, 0.01% Brij-35, 10 mM MgCl2, 0.01 M Triton. Km adenosine triphosphate was added into 384-well plates to initiate reactions, and the reaction were carried out at 28° C. for 1 hour.
(§6) 5. Read the conversion rate by Caliper Reader, and the inhibition rate are calculated according to the average of two tests.

JAK1 = JAK1 (Homo sapiens, UniProt P23458); assay: JAK 1 enzymatic inhibitory activity IC50 assay (Caliper conversion rate); settings: Km ATP, 28° C., 1 hour
Sequence of JAK1 (P23458 whole entry, species assumed): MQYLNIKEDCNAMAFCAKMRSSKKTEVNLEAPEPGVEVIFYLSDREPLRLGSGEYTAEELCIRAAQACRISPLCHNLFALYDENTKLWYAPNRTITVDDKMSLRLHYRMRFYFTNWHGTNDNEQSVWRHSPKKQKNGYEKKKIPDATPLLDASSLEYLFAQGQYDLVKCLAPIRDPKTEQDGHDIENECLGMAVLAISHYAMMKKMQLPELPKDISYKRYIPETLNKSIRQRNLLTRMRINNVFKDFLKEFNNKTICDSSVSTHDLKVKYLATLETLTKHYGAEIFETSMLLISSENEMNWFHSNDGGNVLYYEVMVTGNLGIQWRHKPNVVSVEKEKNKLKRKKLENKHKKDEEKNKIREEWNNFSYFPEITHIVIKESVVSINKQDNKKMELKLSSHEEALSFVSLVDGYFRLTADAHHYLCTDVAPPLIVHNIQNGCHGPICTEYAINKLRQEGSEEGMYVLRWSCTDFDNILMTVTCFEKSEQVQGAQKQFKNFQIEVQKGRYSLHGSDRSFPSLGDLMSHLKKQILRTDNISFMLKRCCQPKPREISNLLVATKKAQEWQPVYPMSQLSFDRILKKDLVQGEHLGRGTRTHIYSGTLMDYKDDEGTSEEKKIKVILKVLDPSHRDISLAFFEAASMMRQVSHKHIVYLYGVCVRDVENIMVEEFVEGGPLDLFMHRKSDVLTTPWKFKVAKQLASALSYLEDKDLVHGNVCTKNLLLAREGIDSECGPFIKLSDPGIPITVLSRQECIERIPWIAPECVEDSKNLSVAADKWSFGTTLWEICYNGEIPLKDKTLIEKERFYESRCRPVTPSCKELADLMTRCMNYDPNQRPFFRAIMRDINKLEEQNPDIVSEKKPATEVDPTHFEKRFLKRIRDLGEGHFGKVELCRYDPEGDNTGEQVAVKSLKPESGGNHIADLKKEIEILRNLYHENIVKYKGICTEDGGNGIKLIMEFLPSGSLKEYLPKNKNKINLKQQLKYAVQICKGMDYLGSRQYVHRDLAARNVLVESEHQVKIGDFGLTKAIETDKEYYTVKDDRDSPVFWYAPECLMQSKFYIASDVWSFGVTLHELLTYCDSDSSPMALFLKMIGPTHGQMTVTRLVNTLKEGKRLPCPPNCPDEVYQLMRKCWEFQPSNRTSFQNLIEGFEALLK
Method: as §1, §2, §3, §4, §5, §6

JAK3 = biological target: T1, JAK3 (Homo sapiens, UniProt P52333); assay: JAK 3 enzymatic inhibitory activity IC50 assay (Caliper conversion rate)
T1 sequence (P52333 1-1124): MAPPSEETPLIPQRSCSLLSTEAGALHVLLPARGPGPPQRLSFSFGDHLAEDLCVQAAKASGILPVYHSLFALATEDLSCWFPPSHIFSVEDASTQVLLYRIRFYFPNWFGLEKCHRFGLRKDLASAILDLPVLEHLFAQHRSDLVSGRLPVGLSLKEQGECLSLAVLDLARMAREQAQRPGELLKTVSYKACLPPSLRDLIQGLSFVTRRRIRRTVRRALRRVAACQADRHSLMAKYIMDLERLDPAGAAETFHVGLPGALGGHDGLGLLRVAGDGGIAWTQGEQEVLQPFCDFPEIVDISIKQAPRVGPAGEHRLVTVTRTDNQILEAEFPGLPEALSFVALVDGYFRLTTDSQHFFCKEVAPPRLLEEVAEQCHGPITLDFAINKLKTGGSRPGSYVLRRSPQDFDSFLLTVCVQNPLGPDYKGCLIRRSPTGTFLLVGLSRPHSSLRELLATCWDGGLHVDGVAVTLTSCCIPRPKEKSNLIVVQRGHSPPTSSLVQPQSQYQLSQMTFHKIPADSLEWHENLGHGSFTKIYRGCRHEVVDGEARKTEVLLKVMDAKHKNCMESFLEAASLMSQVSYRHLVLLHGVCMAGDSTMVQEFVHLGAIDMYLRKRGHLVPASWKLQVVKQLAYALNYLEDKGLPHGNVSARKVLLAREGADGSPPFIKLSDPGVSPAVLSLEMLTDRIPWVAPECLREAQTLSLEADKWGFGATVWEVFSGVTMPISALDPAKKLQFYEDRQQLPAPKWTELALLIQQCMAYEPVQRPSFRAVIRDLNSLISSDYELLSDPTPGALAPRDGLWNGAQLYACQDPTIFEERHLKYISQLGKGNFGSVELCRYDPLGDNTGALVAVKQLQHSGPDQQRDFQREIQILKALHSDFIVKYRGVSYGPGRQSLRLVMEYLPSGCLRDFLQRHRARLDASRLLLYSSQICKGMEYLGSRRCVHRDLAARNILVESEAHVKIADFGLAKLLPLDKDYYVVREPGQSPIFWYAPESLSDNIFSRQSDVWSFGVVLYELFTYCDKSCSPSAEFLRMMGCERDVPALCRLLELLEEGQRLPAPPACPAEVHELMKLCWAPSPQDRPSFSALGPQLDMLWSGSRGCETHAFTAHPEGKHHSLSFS
Method: as §1, §2, §3
as §4, with “time. […]” for “time.”
as §6

[1] = Km ATP, 28° C., 1 hour, read-out: JAK 3 enzymatic inhibitory activity IC50

Sequence of JAK2 (O60674 whole entry, species assumed): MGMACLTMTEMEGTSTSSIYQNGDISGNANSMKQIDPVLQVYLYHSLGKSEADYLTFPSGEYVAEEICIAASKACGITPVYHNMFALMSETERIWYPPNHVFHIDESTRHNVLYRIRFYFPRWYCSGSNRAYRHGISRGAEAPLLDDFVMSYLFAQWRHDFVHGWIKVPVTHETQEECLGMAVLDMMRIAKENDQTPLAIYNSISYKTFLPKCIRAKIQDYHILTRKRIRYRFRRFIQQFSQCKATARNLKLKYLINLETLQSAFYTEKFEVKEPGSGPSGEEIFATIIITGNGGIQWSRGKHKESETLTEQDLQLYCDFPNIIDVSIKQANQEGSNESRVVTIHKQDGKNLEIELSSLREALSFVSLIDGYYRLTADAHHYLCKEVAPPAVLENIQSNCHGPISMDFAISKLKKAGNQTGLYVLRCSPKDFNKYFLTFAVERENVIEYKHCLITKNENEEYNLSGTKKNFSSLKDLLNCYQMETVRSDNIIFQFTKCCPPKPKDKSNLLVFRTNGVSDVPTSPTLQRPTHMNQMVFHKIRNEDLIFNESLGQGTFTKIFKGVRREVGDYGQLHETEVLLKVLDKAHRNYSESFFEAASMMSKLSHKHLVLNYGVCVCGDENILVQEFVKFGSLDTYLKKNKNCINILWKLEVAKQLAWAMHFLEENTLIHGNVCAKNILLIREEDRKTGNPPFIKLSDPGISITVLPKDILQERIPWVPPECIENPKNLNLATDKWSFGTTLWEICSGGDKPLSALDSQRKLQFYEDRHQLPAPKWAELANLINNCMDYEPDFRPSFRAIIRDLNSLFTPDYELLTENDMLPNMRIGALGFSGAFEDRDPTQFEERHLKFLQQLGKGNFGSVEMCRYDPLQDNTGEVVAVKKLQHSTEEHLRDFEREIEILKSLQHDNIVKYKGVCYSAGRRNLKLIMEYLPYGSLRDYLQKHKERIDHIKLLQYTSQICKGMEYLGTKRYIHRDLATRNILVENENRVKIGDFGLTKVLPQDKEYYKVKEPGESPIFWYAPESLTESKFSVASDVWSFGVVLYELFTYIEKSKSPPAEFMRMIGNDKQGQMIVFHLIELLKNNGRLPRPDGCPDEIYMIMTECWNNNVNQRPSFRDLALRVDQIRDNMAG

| SMILES | IC50 (JAK2) [nM] | IC50 (JAK1) [nM] | IC50 (JAK3) [nM] | IC50 (JAK3; [1]) [nM] |
| --- | --- | --- | --- | --- |
| CCS(=O)(=O)N1CC(CC#N)(n2cc(-c3cc(Nc4ccccc4)nc4ccnn34)cn2)C1 [Compound T-55, 2-(1-(Ethylsulfonyl)-3-(4-(5-(phenylamino)pyrazolo[1,5-a]pyrimidin-7-yl)-1H-pyrazol-1-yl)azetidin-3-yl)acetonitrile] | > 1000 | > 1000 | > 1000 | – |
| Cn1cc(Nc2nc(-c3cnn(C4(CC#N)CN(C(=O)CO)C4)c3)c3sccc3n2)cn1 [Compound T-49, 2-(1-(2-Hydroxyacetyl)-3-(4-(2-((1-methyl-1H-pyrazol-4-yl)amino)thieno[3,2-d]pyrimidin-4-yl)-1H-pyrazol-1-yl)azetidin-3-yl)acetonitrile] | < 50 | 500 to 1000 | – | 500 to 1000 |
| CCS(=O)(=O)N1CC(CC#N)(n2cc(-c3nc(Nc4ccc(-n5cnnn5)cc4)nc4ccsc34)cn2)C1 [Compound T-59, 2-(3-(4-(2-((4-(1H-Tetrazol-1-yl)phenyl)amino)thieno[3,2-d]pyrimidin-4-yl)-1H-pyrazol-1-yl)-1-(ethylsulfonyl)azetidin-3-yl)acetonitrile] | < 50 | < 50 | – | 50 to 500 |
| Cn1cc(Nc2nc(-c3cnn(C4(CC#N)COC4)c3)c3sccc3n2)cn1 [Compound T-43, 2-(3-(4-(2-((1-Methyl-1H-pyrazol-4-yl)amino)thieno[3,2-d]pyrimidin-4-yl)-1H-pyrazol-1-yl)oxetan-3-yl)acetonitrile] | < 50 | 50 to 500 | – | 50 to 500 |
| CCS(=O)(=O)N1CC(CC#N)(n2cc(-c3nc(Nc4cnc(N5CCOCC5)nc4)nc4ccsc34)cn2)C1 [Compound T-63, 2-(1-(Ethylsulfonyl)-3-(4-(2-((2-morpholinopyrimidin-5-yl)amino)thieno[3,2-d]pyrimidin-4-yl)-1H-pyrazol-1-yl)azetidin-3-yl)acetonitrile] | < 50 | 500 to 1000 | – | 500 to 1000 |
| CC(C)(C)NS(=O)(=O)c1ccc(-c2nc(Nc3ccc(N4CCOCC4)cc3)nc3ccsc23)cc1 [Compound T-17, N-(Tert-butyl)-4-(2-((4-morpholinophenyl)amino)thieno[3,2-d]pyrimidin-4-yl)benzenesulfonamide] | > 1000 | > 1000 | – | > 1000 |
| N#CCC1(n2cc(-c3nc(Nc4cnn(CCN5CCOCC5)c4)nc4ccsc34)cn2)CCOCC1 [Compound T-50, 2-(4-(4-(2-((1-(2-Morpholinoethyl)-1H-pyrazol-4-yl)amino)thieno[3,2-d]pyrimidin-4-yl)-1H-pyrazol-1-yl)tetrahydro-2H-pyran-4-yl)acetonitrile] | < 50 | 500 to 1000 | – | 500 to 1000 |
| C[C@H](O)Cn1cc(Nc2nc(-c3cnn(C4(CC#N)COC4)c3)c3sccc3n2)cn1 [Compound T-81, (S)-2-(3-(4-(2-((1-(2-Hydroxypropyl)-1H-pyrazol-4-yl)amino)thieno[3,2-d]pyrimidin-4-yl)-1H-pyrazol-1-yl)oxetan-3-yl)acetonitrile] | < 50 | 50 to 500 | – | 50 to 500 |
| C[C@@H](O)Cn1cc(Nc2nc(-c3cnn(C4(CC#N)CN(S(C)(=O)=O)C4)c3)c3sccc3n2)cn1 [Compound T-86, (R)-2-(3-(4-(2-((1-(2-Hydroxypropyl)-1H-pyrazol-4-yl)amino)thieno[3,2-d]pyrimidin-4-yl)-1H-pyrazol-1-yl)-1-(methylsulfonyl)azetidin-3-yl)acetonitrile] | < 50 | < 50 | – | < 50 |
| CCS(=O)(=O)N1CC(CC#N)(n2cc(-c3nc(Nc4cccc(N5CCOCC5)c4)nc4ccsc34)cn2)C1 [Compound T-13, 2-(1-(Ethylsulfonyl)-3-(4-(2-((3-morpholinophenyl)amino)thieno[3,2-d]pyrimidin-4-yl)-1H-pyrazol-1-yl)azetidin-3-yl)acetonitrile] | 50 to 500 | 500 to 1000 | – | 500 to 1000 |
| CCS(=O)(=O)N1CC(CC#N)(n2cc(-c3nc(Nc4ccn(C)n4)nc4ccsc34)cn2)C1 [Compound T-25, 2-(1-(Ethylsulfonyl)-3-(4-(2-((1-methyl-1H-pyrazol-3-yl)amino)thieno[3,2-d]pyrimidin-4-yl)-1H-pyrazol-1-yl)azetidin-3-yl)acetonitrile] | < 50 | < 50 | – | 50 to 500 |
| CCC(=O)N1CC(CC#N)(n2cc(-c3nc(Nc4cnn(C)c4)nc4ccsc34)cn2)C1 [Compound T-46, 2-(3-(4-(2-((1-Methyl-1H-pyrazol-4-yl)amino)thieno[3,2-d]pyrimidin-4-yl)-1H-pyrazol-1-yl)-1-propionylazetidin-3-yl)acetonitrile] | < 50 | 50 to 500 | – | 500 to 1000 |
| CCS(=O)(=O)N1CC(CC#N)(n2cc(-c3nc(Nc4cnn(CCC(=O)N(C)C)c4)nc4ccsc34)cn2)C1 [Compound T-36, 3-(4-((4-(1-(3-(Cyanomethyl)-1-(ethylsulfonyl)azetidin-3-yl)-1H-pyrazol-4-yl)thieno[3,2-d]pyrimidin-2-yl)amino)-1H-pyrazol-1-yl)-N,N-dimethylpropanamide] | < 50 | 50 to 500 | – | < 50 |
| Cn1cc(Nc2nc(-c3cnn(C4(CC#N)COC4)c3)c3ccsc3n2)cn1 [Compound T-42, 2-(3-(4-(2-((1-Methyl-1H-pyrazol-4-yl)amino)thieno[2,3-d]pyrimidin-4-yl)-1H-pyrazol-1-yl)oxetan-3-yl)acetonitrile] | 50 to 500 | 500 to 1000 | – | > 1000 |
| CCS(=O)(=O)N1CC(CC#N)(n2cc(-c3nc(Nc4cn(C)cn4)nc4ccsc34)cn2)C1 [Compound T-48, 2-(1-(Ethylsulfonyl)-3-(4-(2-((1-methyl-1H-imidazol-4-yl)amino)thieno[3,2-d]pyrimidin-4-yl)-1H-pyrazol-1-yl)azetidin-3-yl)acetonitrile] | 50 to 500 | > 1000 | – | > 1000 |
| CCn1cc(Nc2nc(-c3cnn(C4(CC#N)CN(S(=O)(=O)CC)C4)c3)c3sccc3n2)cn1 [Compound T-40, 2-(3-(4-(2-((1-Ethyl-1H-pyrazol-4-yl)amino)thieno[3,2-d]pyrimidin-4-yl)-1H-pyrazol-1-yl)-1-(ethylsulfonyl)azetidin-3-yl)acetonitrile] | < 50 | < 50 | – | < 50 |
| CCS(=O)(=O)N1CC(CC#N)(n2cc(-c3nc(Nc4ccc(C#N)cc4)nc4ccsc34)cn2)C1 [Compound T-19, 4-((4-(1-(3-(Cyanomethyl)-1-(ethylsulfonyl)azetidin-3-yl)-1H-pyrazol-4-yl)thieno[3,2-d]pyrimidin-2-yl)amino)benzonitrile] | < 50 | 50 to 500 | – | 50 to 500 |
| CCS(=O)(=O)N1CC(CC#N)(n2cc(-c3nc(Nc4cnn(CCOC)c4)nc4ccsc34)cn2)C1 [Compound T-70, 2-(1-(Ethylsulfonyl)-3-(4-(2-((1-(2-methoxyethyl)-1H-pyrazol-4-yl)amino)thieno[3,2-d]pyrimidin-4-yl)-1H-pyrazol-1-yl)azetidin-3-yl)acetonitrile] | < 50 | < 50 | – | < 50 |
